The nature of data set [1]: Biodistribution in Jurkat tumor-bearing CB-17 SCID mice. In kind it is in vivo. The note with it: female, CB-17 SCID, mouse, in vivo, iv, total radioactivity. In outline: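 CB17-SCID mice bore subcutaneous Jurkat xenografts (2-3×10^7 cells in Matrigel, shoulder), used at 5-8 mm tumor diameter. About 0.5-20 MBq (0.02-0.20 nmol) of 125I-, 177Lu-, 99mTc-, 18F- or 68Ga-labeled ligand given by tail vein; organs weighed and γ-counted after set times.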

Data set [2] in a line: Octanol/PBS partition coefficient (logD7.4). To be noted: n-octanol/PBS pH 7.4, radiolabeled compound. In kind it is physicochemical. The method, then: The tubes were vortexed at maximum speed for 3 min to ensure equilibrium before centrifugation at 15.000×g for 5 min on a Biofuge 15 from Heraeus Holding GmbH (Osterode, Germany). An aliquot of 100 μL of each fraction was measured in the γ-counter and the log D7.4 calculated as follows: […]

Data set [3] has as its system CXCR4-expressing Chem_1 cells. Description: Determination of internalization, dual tracer with 125I-Fc-131. In kind it is cell-based. To be noted: for Cell-bound [%] / Internalized [%]: of total cellular activity. In outline: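 Chem_1 cells grown in DMEM-F12 with 10% FBS at 37 °C; wells (n=3 per time point) received medium or AMD3100 (1 mM stock) to block receptors. Unbound, surface-bound and NaOH-lysed internalized fractions were γ-counted; data corrected for non-specific internalization and referred to standard ligand specific internalization.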

The target of another data set is CXCR4 (Homo sapiens, UniProt P61073). Put plainly: Determination of inverse IC50 (invIC50): radiolabeled peptide displaced by Fc-131 on Jurkat cells.

Positions of bridges follow the written chain, without caps; N, C: chain ends. Non-standard residues stand in square brackets, D forms with d. Residues, ends and D or L forms follow the SMILES beside them. Groups on a side chain read outwards from the residue. Chains are numbered I, II in the order given. *: point of attachment. X2 = OC[C@H]1O[C@@H](O[C@H]2[C@H](O)[C@@H](O)[C@H](*)O[C@@H]2CO)[C@H](O)[C@@H](O)[C@H]1O; X3 = OCC1OC(OC2C(CO)OC(*)C(O)C2O)C(O)C(O)C1O; 2Nal = N[C@@H](Cc1ccc2ccccc2c1)C(=O)O; dCit = NC(=O)NCCC[C@@H](N)C(=O)O; dNMeOrn = CN[C@H](CCCN)C(=O)O; d(hCys) = N[C@H](CCS)C(=O)O; HYNIC = NNc1ccc(C(=O)*)cn1; Mercaptoacetyl = O=C(CS)*; X4 = OCC1OC(*)C(O)C(O)C1O; 4Abz = Nc1ccc(C(=O)O)cc1; dDap = NC[C@@H](N)C(=O)O

As a reminder, the tissue uptake is the share of the injected amount in each gram of the tissue. What is called IC50 is the concentration at which inhibition is half-maximal.

CXCR4, sequence (P61073 whole entry): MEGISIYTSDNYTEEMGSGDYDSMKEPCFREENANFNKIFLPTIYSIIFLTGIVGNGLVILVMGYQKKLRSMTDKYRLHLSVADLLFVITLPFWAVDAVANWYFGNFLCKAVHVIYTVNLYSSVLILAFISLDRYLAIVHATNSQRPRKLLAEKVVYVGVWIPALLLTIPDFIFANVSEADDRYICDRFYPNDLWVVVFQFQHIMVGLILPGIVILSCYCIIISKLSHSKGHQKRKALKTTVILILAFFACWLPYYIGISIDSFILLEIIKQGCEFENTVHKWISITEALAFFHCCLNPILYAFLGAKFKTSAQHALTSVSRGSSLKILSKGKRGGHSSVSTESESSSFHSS

On to `C[C@@H](NC(=O)[C@@H](CCCNC(=N)N)NC(=O)[C@@H](CN)NC(=O)[C@@H](CCSC1OC(CO)C(O)C(O)C1O)NC(=O)[C@@H](CCSC1OC(CO)C(O)C(O)C1O)NC(=O)[C@@H](CCSC1OC(CO)C(O)C(O)C1O)NC(=O)CS)C(=O)Nc1ccc(C(=O)NCCC[C@@H]2C(=O)N[C@@H](CCCNC(=N)N)C(=O)N[C@@H](Cc3ccc4ccccc4c3)C(=O)NCC(=O)N[C@H](Cc3ccc(O)cc3)C(=O)N2C)cc1` (stereo partly drawn) [Tc-CXCR4-9] (I: Mercaptoacetyl-[d(hCys)](X4)[d(hCys)](X4)[d(hCys)](X4)[dDap][dR][dA][4Abz] / II: cyclo([2Nal]G[dY][dNMeOrn]R); amide I:C-II:4), for which the tissue uptake at 1 h in data set [1] (% iD/g Blood) came out at 1.42 %ID/g; in data set [1] (% iD/g Bone), 0.47 %ID/g; in data set [1] (% iD/g Heart) it was 0.87 %ID/g; in data set [1] (% iD/g Intestine) it was 1.5 %ID/g; in data set [1] (% iD/g Kidney), 14.8 %ID/g; in data set [1] (% iD/g Liver) it was 3.97 %ID/g. The tissue uptake at 1 h in data set [1] (% iD/g Lung) was determined as 2.4 %ID/g; in data set [1] (% iD/g Muscle) it was 0.24 %ID/g; in data set [1] (% iD/g Pancreas), 0.5 %ID/g; in data set [1] (% iD/g Spleen), 1.24 %ID/g; in data set [1] (% iD/g Stomach), 3.51 %ID/g; in data set [1] (% iD/g Tumor), 5.92 %ID/g. In addition, in data set [2], the logD7.4 is listed as −2.56 ± 0.03 (6). Further, the results for the “Internalized in relation to 125I-Fc-131 [%]” value (shortened to “Internalized in relation … [%]”) in data set [3] (30 min) and in data set [3] (90 min) were 86.4 ± 9.62% and 103 ± 6.56%, respectively. The “Cell-bound [%]” value in data set [3] (30 min) worked out at 3.69 ± 0.56%; in data set [3] (90 min), 3.69 ± 0.49%. The “Internalized [%]” value is recorded as 7.00 ± 0.74% in data set [3] (30 min) and 12.5 ± 0.67% in data set [3] (90 min). Moreover, the “Internalization [% Fc-131]” value in data set [3] (90 min) is 103 (90 min) % Fc-131. The compound further had an IC50 at CXCR4 of 3.5 ± 0.65 nM.

Consider `C[C@@H](NC(=O)[C@@H](CCCNC(=N)N)NC(=O)[C@@H](CN)NC(=O)[C@@H](CO)NC(=O)[C@@H](CCS[C@@H]1O[C@H](CO)[C@@H](O[C@@H]2O[C@H](CO)[C@H](O)[C@H](O)[C@H]2O)[C@H](O)[C@H]1O)NC(=O)[C@@H](CO)NC(=O)CS)C(=O)Nc1ccc(C(=O)NCCC[C@@H]2C(=O)N[C@@H](CCCNC(=N)N)C(=O)N[C@@H](Cc3ccc4ccccc4c3)C(=O)NCC(=O)N[C@H](Cc3ccc(O)cc3)C(=O)N2C)cc1` [Tc-CXCR4-11] (I: Mercaptoacetyl-[dS][d(hCys)](X2)[dS][dDap][dR][dA][4Abz] / II: cyclo([2Nal]G[dY][dNMeOrn]R); amide I:C-II:4), for which the tissue uptake at 1 h in data set [1] (% iD/g Blood) came to 1.36 %ID/g; in data set [1] (% iD/g Bone) it was 0.71 %ID/g; in data set [1] (% iD/g Heart), 0.95 %ID/g; in data set [1] (% iD/g Intestine) it was 0.72 %ID/g; in data set [1] (% iD/g Kidney), 29 %ID/g; in data set [1] (% iD/g Liver), 5.94 %ID/g. In addition, the tissue uptake at 1 h in data set [1] (% iD/g Lung) worked out at 2.85 %ID/g; in data set [1] (% iD/g Muscle), 0.28 %ID/g; in data set [1] (% iD/g Pancreas), 0.48 %ID/g; in data set [1] (% iD/g Spleen) it was 2.31 %ID/g; in data set [1] (% iD/g Stomach), 1.16 %ID/g; in data set [1] (% iD/g Tumor), 6.71 %ID/g. Besides, in data set [2], the logD7.4 was −2.94 ± 0.02 (8). For the same compound, the “Internalized in relation … [%]” value is 71.9 ± 11.4% in data set [3] (15 min), 178 ± 26.2% in data set [3] (30 min), 145 ± 19.8% in data set [3] (60 min) and 221 ± 23.4% in data set [3] (120 min). The “Cell-bound [%]” value is 1.79 ± 0.36% in data set [3] (15 min), 3.74 ± 0.33% in data set [3] (30 min), 7.02 ± 0.06% in data set [3] (60 min) and 4.25 ± 0.67% in data set [3] (120 min). For the same compound, the “Internalized [%]” value in data set [3] (15 min) is given as 3.16 ± 0.46%; in data set [3] (30 min) it was 6.98 ± 0.78%; in data set [3] (60 min) it was 7.10 ± 0.84%; in data set [3] (120 min), 10.8 ± 1.13%. Moreover, the “Internalization [% Fc-131]” value in data set [3] (120 min) is reported as 221 (120 min) % Fc-131. For the same compound, the IC50 at CXCR4 was determined as 2.05 ± 0.95 nM.

Take `C[C@@H](NC(=O)[C@@H](CCCNC(=N)N)NC(=O)[C@@H](CN)NC(=O)[C@@H](CCCNC(N)=O)NC(=O)[C@@H](CCSC1OC(CO)C(OC2OC(CO)C(O)C(O)C2O)C(O)C1O)NC(=O)[C@@H](CCCNC(N)=O)NC(=O)CS)C(=O)Nc1ccc(C(=O)NCCC[C@@H]2C(=O)N[C@@H](CCCNC(=N)N)C(=O)N[C@@H](Cc3ccc4ccccc4c3)C(=O)NCC(=O)N[C@H](Cc3ccc(O)cc3)C(=O)N2C)cc1` (stereo partly drawn) [Tc-CXCR4-12] (I: Mercaptoacetyl-[dCit][d(hCys)](X3)[dCit][dDap][dR][dA][4Abz] / II: cyclo([2Nal]G[dY][dNMeOrn]R); amide I:C-II:4): the tissue uptake at 1 h in data set [1] (% iD/g Blood) stood at 1.74 %ID/g; in data set [1] (% iD/g Bone) it was 0.95 %ID/g; in data set [1] (% iD/g Heart), 1.14 %ID/g; in data set [1] (% iD/g Intestine), 1.25 %ID/g; in data set [1] (% iD/g Kidney) it was 35 %ID/g; in data set [1] (% iD/g Liver), 11 %ID/g. Further, the tissue uptake at 1 h in data set [1] (% iD/g Lung) is 3.96 %ID/g; in data set [1] (% iD/g Muscle), 0.34 %ID/g; in data set [1] (% iD/g Pancreas), 0.8 %ID/g; in data set [1] (% iD/g Spleen), 4.72 %ID/g; in data set [1] (% iD/g Stomach), 2.03 %ID/g; in data set [1] (% iD/g Tumor) it was 7.39 %ID/g. The logD7.4 in data set [2] is −2.92 ± 0.06 (8). For the same compound, the “Internalized in relation … [%]” value is 192 ± 38.1% in data set [3] (15 min), 284 ± 92.3% in data set [3] (30 min), 395 ± 72.2% in data set [3] (60 min) and 473 ± 41.9% in data set [3] (120 min). Besides, the “Cell-bound [%]” value in data set [3] (15 min) turned out to be 3.77 ± 0.83%; in data set [3] (30 min), 8.56 ± 0.66%; in data set [3] (60 min) it was 14.1 ± 0.71%; in data set [3] (120 min), 7.42 ± 2.12%. Also, the “Internalized [%]” value in data set [3] (15 min) came to 3.79 ± 0.69%; in data set [3] (30 min), 9.64 ± 1.31%; in data set [3] (60 min) it was 11.6 ± 2.01%; in data set [3] (120 min), 18.1 ± 0.85%. Besides, the “Internalization [% Fc-131]” value in data set [3] (120 min) is reported as 473 (120 min) % Fc-131. Also, at CXCR4, the IC50 was 4.82 ± 1.36 nM.

Turning to `C[C@@H](NC(=O)[C@@H](CCCNC(=N)N)NC(=O)[C@@H](CN)NC(=O)c1ccc(NN)nc1)C(=O)Nc1ccc(C(=O)NCCC[C@@H]2C(=O)N[C@@H](CCCNC(=N)N)C(=O)N[C@@H](Cc3ccc4ccccc4c3)C(=O)NCC(=O)N[C@H](Cc3ccc(O)cc3)C(=O)N2C)cc1` [Tc-CXCR4-13] (cyclo([dY][dNMeOrn]([4Abz-dA-dR-dDap-HYNIC])R[2Nal]G)), the tissue uptake at 1 h is 1.56 %ID/g in data set [1] (% iD/g Blood); 0.81 %ID/g in data set [1] (% iD/g Bone); 0.78 %ID/g in data set [1] (% iD/g Heart); 0.57 %ID/g in data set [1] (% iD/g Intestine); 29.5 %ID/g in data set [1] (% iD/g Kidney); 2.62 %ID/g in data set [1] (% iD/g Liver). Also, the tissue uptake at 1 h in data set [1] (% iD/g Lung) is 1.94 %ID/g; in data set [1] (% iD/g Muscle) it was 1.52 %ID/g; in data set [1] (% iD/g Pancreas), 0.36 %ID/g; in data set [1] (% iD/g Spleen), 2.43 %ID/g; in data set [1] (% iD/g Stomach), 1.98 %ID/g; in data set [1] (% iD/g Tumor), 8.02 %ID/g. For the same compound, the logD7.4 in data set [2] is listed as −2.74 ± 0.03 (5). In addition, the “Internalized in relation … [%]” value turned out to be 434 ± 18.8% in data set [3] (30 min) and 503 ± 16.2% in data set [3] (90 min). Moreover, the “Cell-bound [%]” value is 7.56 ± 0.38% in data set [3] (30 min) and 7.65 ± 0.47% in data set [3] (90 min). The “Internalized [%]” value amounted to 18.0 ± 0.27% in data set [3] (30 min) and 25.5 ± 0.57% in data set [3] (90 min). Further, the “Internalization [% Fc-131]” value in data set [3] (90 min) is given as 503 (90 min) % Fc-131. The same compound had an IC50 on CXCR4 of 4.16 ± 1.5 nM.
